Key:
huFAP = target: T1, huFAP (Homo sapiens, UniProt Q12884); assay: Recombinant enzymatic inhibition assay, huFAP (Z-Gly-Pro-AMC); format: biochemical; conditions: n = 3, picture: nM ± 95% CI
T1 sequence (Q12884 1-760): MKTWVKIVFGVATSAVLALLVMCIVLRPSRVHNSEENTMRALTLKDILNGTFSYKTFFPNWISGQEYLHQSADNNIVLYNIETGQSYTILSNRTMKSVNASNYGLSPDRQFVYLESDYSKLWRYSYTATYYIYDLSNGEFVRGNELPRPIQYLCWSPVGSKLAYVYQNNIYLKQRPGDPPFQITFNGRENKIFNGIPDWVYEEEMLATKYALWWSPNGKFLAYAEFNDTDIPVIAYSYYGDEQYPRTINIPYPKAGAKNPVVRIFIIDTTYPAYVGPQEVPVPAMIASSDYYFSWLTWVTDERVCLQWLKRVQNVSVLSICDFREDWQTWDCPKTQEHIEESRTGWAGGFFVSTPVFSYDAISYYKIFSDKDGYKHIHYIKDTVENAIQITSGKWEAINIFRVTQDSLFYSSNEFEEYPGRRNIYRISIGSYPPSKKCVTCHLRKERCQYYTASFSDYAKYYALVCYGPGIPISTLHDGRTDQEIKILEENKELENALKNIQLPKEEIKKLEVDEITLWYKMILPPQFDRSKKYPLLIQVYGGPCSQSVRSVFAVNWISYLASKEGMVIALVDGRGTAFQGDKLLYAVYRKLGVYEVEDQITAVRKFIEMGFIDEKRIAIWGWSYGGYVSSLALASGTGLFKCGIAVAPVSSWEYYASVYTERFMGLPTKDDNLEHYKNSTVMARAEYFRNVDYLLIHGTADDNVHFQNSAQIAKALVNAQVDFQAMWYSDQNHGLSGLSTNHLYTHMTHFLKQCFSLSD
Protocol: All enzymatic assays were performed in black 384-well plates, and enzymatic activity was measured on a microplate reader, monitoring the fluorescence at λEX 350 nm/λEM 485 nm. […] Val-boroPro (10^− 4 M) and assay buffer served as a positive and negative control, respectively. To measure inhibition of PREP, 50 µL of the reaction mixture containing 1 µM Z-Gly-Pro-AMC and 10 ng PREP (R&D Systems; Minneapolis, MN, USA) were used. The enzymatic assay of DPP4 contained substrate (100 µM), DPP4 (Abcam; Cambridge, UK) (10 nM), assay buffer, and increasing concentrations of the inhibitors (10^− 10 M to 10^− 4 M). Sitagliptin (10^− 4 M) and assay buffer were used as a positive and negative control, respectively. H-Gly-Pro-AMC (100 µM) in assay buffer was used as a baseline control. The plates were analyzed in a Hidex Sense Microplate reader (Hidex; Turku, Finland) at 37 °C under dark conditions for 1 h (huFAP), 2 h (muFAP), or 30 min (PREP, DPP4). For all assays, the components were kept on ice before plating.
All statistical analyses were performed with GraphPad Prism version 9.0 (San Diego, California USA). All IC50 values were determined using a non-linear regression Log(inhibitor) vs. response analysis with variable slope (four parameters). For the in vivo results outliers were identified by a ROUT test (Q = 1%) and excluded. Next, a two-tailed student’s t-test was performed (*p < 0.05, **p < 0.01, ***p < 0.001). All experiments were performed in triplicate and repeated at least three times.

[1] = target: T2, dipeptidyl peptidase IV (DPP4) (Homo sapiens, UniProt P27487); assay: Enzymatic inhibition assay, DPP4; format: biochemical; conditions: recombinant DPP4, n = 3; picture: nM ± 95% CI
T2 construct: purchased Abcam
Protocol: All experiments were performed in triplicate and repeated at least three times.

[2] = target: T3, huFAP (HT1080-huFAP cells) (Homo sapiens, UniProt Q12884); assay: [^111In]In-FAPI-46 displacement assay on FAP-expressing cells; format: binding; conditions: 10^-9 M [^111In]In-FAPI-46, 45 min, n = 3, picture: nM ± 95% CI
T3 construct: expressed in transfected cells; host or cells: HT1080 (human sarcoma), stably transduced; provided by Prof; Dr. Uwe Haberkorn, University of Heidelberg
T3 sequence (Q12884 1-760): T1 sequence (Q12884 1-760)
Protocol: Cell experiments were performed with the human sarcoma HT1080 cell line, stably transduced with human FAP (HT1080-huFAP) which were kindly provided by Prof. Dr. Uwe Haberkorn from the University of Heidelberg. The wild type HT1080 (ATTC), hereafter HT080-WT, was used as a negative control. Additionally, the pancreatic stellate cells PS-1, obtained from Queen Mary University, were used as an endogenously FAP expressing cell line. HT1080-huFAP and HT1080-WT cells were cultured in DMEM Glutamax© (Gibco; Breda, The Netherlands) and the PS-1 cells were cultured in RPMI (Gibco). Both media were supplemented with 10% FBS (Gibco), 100 UI/mL penicillin, and 100 µg/mL streptomycin (Merck Life Science NV; Amsterdam, The Netherlands). All cell lines were regularly passaged at 80% confluence and cultured at 37 °C, 5% CO2.
In vitro displacement studies of eFAP-6 and eFAP-7, as well as specificity and uptake assays, were performed using HT0180-huFAP cells. One day prior to the assay 100,000 cells were seeded in a 12-well plate in triplicate. […] For the uptake assay, the cells were incubated with 1 nM [^111In]In-eFAP-6 or [^111In]In-FAPI-46 for different time points (5–120 min) in the presence and absence of 1 mM UAMC-1110 to determine the specificity of^111 radiotracer binding. In both assays, the cells were washed twice with PBS after incubation and were subsequently lysed using 1 M NaOH for 20 min. The cell lysates were collected and radioactivity was measured in a γ-counter (PerkinElmer), simultaneously with 100 µL of the radioactive incubation medium as a standard. […] Uptake was expressed as percentage added activity per 200,000 cells (% AA/200,000 cells), and specific uptake was corrected by subtracting the uptake measured in the block wells.
All statistical analyses were performed with GraphPad Prism version 9.0 (San Diego, California USA). All IC50 values were determined using a non-linear regression Log(inhibitor) vs. response analysis with variable slope (four parameters). […]

T2 sequence (P27487 whole entry, species assumed): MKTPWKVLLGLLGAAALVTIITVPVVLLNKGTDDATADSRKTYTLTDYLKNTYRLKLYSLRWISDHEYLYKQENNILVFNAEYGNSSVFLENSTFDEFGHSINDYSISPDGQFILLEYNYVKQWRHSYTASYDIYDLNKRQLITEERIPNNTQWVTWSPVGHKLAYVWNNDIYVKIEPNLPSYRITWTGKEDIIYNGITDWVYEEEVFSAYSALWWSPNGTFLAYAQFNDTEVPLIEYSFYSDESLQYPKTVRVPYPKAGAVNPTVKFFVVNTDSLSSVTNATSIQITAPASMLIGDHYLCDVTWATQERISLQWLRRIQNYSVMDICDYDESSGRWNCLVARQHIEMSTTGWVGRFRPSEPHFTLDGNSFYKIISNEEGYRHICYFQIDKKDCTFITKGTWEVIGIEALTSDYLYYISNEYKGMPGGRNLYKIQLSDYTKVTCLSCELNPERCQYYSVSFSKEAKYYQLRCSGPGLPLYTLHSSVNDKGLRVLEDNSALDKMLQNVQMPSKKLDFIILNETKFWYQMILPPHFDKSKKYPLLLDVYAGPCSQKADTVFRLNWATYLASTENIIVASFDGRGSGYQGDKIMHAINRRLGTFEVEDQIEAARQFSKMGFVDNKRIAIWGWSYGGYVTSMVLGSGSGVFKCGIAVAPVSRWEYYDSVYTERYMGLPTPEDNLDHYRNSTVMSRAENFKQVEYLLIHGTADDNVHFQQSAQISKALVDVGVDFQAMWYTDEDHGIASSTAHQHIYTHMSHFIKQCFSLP

Compound: CN1/C(=C/C=C/C=C/C2=[N+](CCCCCC(=O)NCCCOc3cccc4c(C(=O)NCC(=O)N5CC(F)(F)C[C@H]5C#N)ccnc34)c3ccc(S(=O)(=O)[O-])cc3C2(C)C)C(C)(C)c2cc(S(=O)(=O)O)ccc21 [eFAP-7, 1-(6-((3-((4-((2-((S)-2-cyano-4,4-difluoropyrrolidin-1-yl)-2-oxoethyl)carbamoyl)quinolin-8-yl)oxy)propyl)amino)-6-oxohexyl)-3,3-dimethyl-5-sulfo-2-((1E,3E)-5-((E)-1,3,3-trimethyl-5-sulfoindolin-2-ylidene)penta-1,3-dien-1-yl)-3H-indol-1-ium]
- IC50 (huFAP): 4.23 ± 0.5 nM
- IC50 [1]: 612000 ± 42700 nM
- IC50 [2]: 1 ± 0.36 nM

Compound: CN(CCCN1CCN(C(=O)CN2CCN(CC(=O)O)CCN(CC(=O)O)CCN(CC(=O)O)CC2)CC1)c1ccc2nccc(C(=O)NCC(=O)N3CC(F)(F)C[C@H]3C#N)c2c1 [FAPI-46, reference compound]
- IC50 (huFAP): 3.87 ± 2.7 nM
- IC50 [2]: 1.42 ± 0.29 nM

Compound: N#C[C@@H]1CC(F)(F)CN1C(=O)CNC(=O)c1ccnc2c(OCCCNC(=O)CN3CCN(CC(=O)O)CCN(CC(=O)O)CCN(CC(=O)O)CC3)cccc12 [eFAP-6, (S)-2,2',2''-(10-(2-((3-((4-((2-(2-cyano-4,4-difluoropyrrolidin-1-yl)-2-oxoethyl)carbamoyl)quinolin-8-yl)oxy)propyl)amino)-2-oxoethyl)-1,4,7,10-tetraazacyclododecane-1,4,7-triyl)triacetic acid]
- IC50 (huFAP): 1.16 ± 0.04 nM
- IC50 [1]: 58600 ± 11400 nM
- IC50 [2]: 0.62 ± 0.26 nM

From paper PMC11286609, “In vitro and in vivo analyses of eFAP: a novel FAP-targeting small molecule for radionuclide theranostics and other oncological interventions” (EJNMMI Radiopharmacy and Chemistry, 2024)
